{"source": "patent US8057829B2", "about": "“Methods for repelling insects using sesquiterpene hydrocarbons and their derivatives” (Sterling International Inc., priority 2008, dated 2011)", "key": {"[1]": {"test_system": "housefly (Musca domestica) antenna", "assay": "GC-EAD antennal response, housefly", "details": "female housefly antenna; synthetic mixture, about 100 ng of each compound; FIG. 3", "from_the_text": "The sesquiterpene hydrocarbons and their derivatives disclosed herein have been identified as suitable insect repellents by testing via a gas chromatographic-electroantennographic detection (GC-EAD) method as described in Example 1 below. This method can be used to efficiently screen for potentially behaviorally active compounds, including insect repellents, attractants, deterrents, or attraction-inhibitors from complex natural sources or synthetic mixtures.\nThe GC-EAD responses of the female housefly antenna were tested on a synthetic mixture of 1-octen-3-ol, a known attractant used as a positive control, and representative sesquiterpene hydrocarbons and derivatives, (+)-longipinene, (−)-isolongifolene, (+)-longifolene, β-caryophyllene, α-humulene, and isolongifolenone, with about 100 ng of each compound in the mixture.\nThe GC-EAD responses of the male housefly antenna were tested on a synthetic mixture of 1-octen-3-ol, and two representative sesquiterpenes, β-caryophyllene and isocaryophyllene, with about 100 ng of each compound in the mixture.\n(§1) The following procedures were employed to test the EAD response of an insect antenna to a repellent compound. The GC-EAD technique provides an efficient tool for screening behaviorally active repellents. Several synthetic mixtures of potential insect repellent candidates, mostly sesquiterpene hydrocarbons and derivatives, were analyzed in splitless mode using a Varian CP-3800 GC equipped with a polar column (Innowax; 1.0 μm film thickness, 30 m×0.53 mm ID; J & W Scientific), and a 1:1 effluent splitter that allowed simultaneous flame ionization detection (FID) and EAD of the separated volatile compounds. Helium was used as the carrier gas, and the injector temperature was 220° C. The column temperature was 50° C. for 2 min, rising to 240° C. at 10° C./min, then held for 10 min. The outlet for the EAD was held in a humidified air stream flowing at 0.5 liter/min. over an antennal preparation. A glass capillary indifferent electrode filled with Beadle-Ephrussi Ringer, and grounded via a silver wire, was inserted into the severed insect's head with the antennae. A similar recording electrode connected to a high-impedance DC amplifier with automatic baseline drift compensation was placed in contact with the distal end of one antenna (Zhang et al., Chemoecology, 10:69-80 (2000)). The antennal signals were stored and analyzed on a PC equipped with a serial IDAC interface box and the program EAD ver. 2.5 (Syntech, Hilversum, The Netherlands). The compound 1-octen-3-ol (known attractant for many flies and mosquitoes) was included in most of the synthetic mixtures, as a positive control. The results of the experiments are shown in FIGS. 1-10 and described above."}, "[2]": {"test_system": "female mosquito Culex pipiens antenna", "assay": "GC-EAD antennal response, Culex pipiens", "details": "female Culex pipiens antennae; about 100 ng of each compound; responses weak, but repeatable; FIGS. 7 and 8", "method": "The GC-EAD responses of the female mosquito Culex pipiens antenna were tested on a synthetic mixture of 1-octen-3-ol, and two sesquiterpene hydrocarbons, β-caryophyllene and isocaryophyllene, with about 100 ng of each compound in the mixture.\nThe GC-EAD responses of the female mosquito Culex pipiens antenna were tested on a synthetic mixture of 1-octen-3-ol, and representative sesquiterpene hydrocarbons and derivatives including (+)-longipinene, (−)-isolongifolene, (+)-longifolene, β-caryophyllene, and isolongifolenone, with about 100 ng of each compound in the mixture.\nAntennal responses were weak, but repeatable, thus are considered to be true responses.\nas §1"}, "[3]": {"test_system": "female antennae of sand fly Phlebotomus papatasi and mosquitoes Aedes aegypti, Anopheles gambiae, Anopheles stephensi", "assay": "GC-EAD responses of sand fly and three mosquitoes to synthetic mixtures", "details": "about 100 ng of each compound, on one or more of the sand fly or the mosquitoes, FIGS. 9 and 10", "method": "The GC-EAD responses of female antennae of the sand fly, Phlebotomus papatasi, and three species of mosquitoes, Aedes aegypti, Anopheles gambiae, and anopheles stephensi were tested on a synthetic mixture of 1-octen-3-ol, six sesquiterpene hydrocarbons including (+)-longipinene, (−)-isolongifolene, (+)-longifolene, β-caryophyllene, isolongifolenone, and α-humulene, and several known insect repellents including ZE-nepetalactone, EZ-nepetalactone, with about 100 ng of each compound in the mixture.\nThe GC-EAD responses of female antennae of the sand fly, Phlebotomus papatasi, and three species mosquitoes, Aedes aegypti, Anopheles gambiae, and anopheles stephensi were tested on a synthetic mixture of 1-octen-3-ol, linalool, β-caryophyllene oxide, isocaryophyllene, β-caryophyllene, and α-humulene, and DEET, with about 100 ng of each compound in the mixture.\nas §1"}, "[4]": {"test_system": "antennae of housefly, sand fly, and mosquitoes (Aedes aegypti, Aedes increpitus, Anopheles gambiae)", "assay": "GC-EAD antennal responses to SPME samples of patchouli essential oil", "details": "component of patchouli essential oil SPME sample; response by one or more of the insects; FIG. 2", "method": "as §1, with “control.” for “control. The results of the experiments are shown in FIGS. 1-10 and described above.”"}, "Aedes aegypti [5]": {"test_system": "Aedes aegypti", "assay": "K&D module behavioral bioassay (topical repellency, biting)", "assay_type": "in vivo", "method": "(§2) The bioassays were conducted with a six-cell in vitro K&D module system, as disclosed in Klun and Debboun, J. Med. Entomol. 37:177-181 (2000), loaded with an “artificial blood” (CPDA+ATP) solution.\n(§3) Clove essential oil, patchouli oil, and EAD-active potential repellents, β-caryophyllene, isocaryophyllene, (+)-longifolene, and their 1:1:1 mixture, plus α-guaiene, caryophyllene oxide, and a β-caryophyllene ketone, were tested using the six-cell in vitro K&D module system (Klun and Debboun, J. Med. Entomol. 37:177-181 (2000)) loaded with an “artificial blood” (CPDA+ATP) solution on both Ae. aegypti and An. stephensi in a dose-response fashion. The K&D in vitro assay system has three components: (1) a Plexiglas™ 29.7 cm.×7.1 cm K&D module composed of six adjacent cells, each designed to hold mosquitoes and each having a rectangular 3×4 cm floor hole that is opened and closed by a sliding door; (2) a Plexiglas™ six-well 29.7 cm×7.1 cm water water-bath warmed (38° C.) reservoir with six 3×4 cm wells designed to match the sliding-door openings of the K&D module base and to contain 6 mL warmed “artificial blood” wells covered with a collagen membrane; and (3) a 29.7 cm×7.1 cm'0.4 cm Teflon® separator having six rectangular openings like the K&D module. The K&D module was connected to a constant temperature water circulator at 38° C. The cells were covered with an Edicol collagen membrane strip. Nylon organdy strips with ink cell patterns were numbered and randomly treated with […] of the tested chemical in ethanol (ethanol alone as blank control), plus DEET (ca. 10 μg/cm^2) as a positive control. This treated nylon organdy strip was placed on top of the collagen membrane. The upper section of the K & D module with the six cells each containing 5 mosquitoes (5-10 d old, starved for 24 hr before testing) was placed on top of the nylon strip. The doors to the cells were slid open so the mosquitoes could be free to feed on the “artificial blood” via the collagen membrane if they were hungry. The experiments were allowed to run for 3 minutes, and the number of mosquitoes feeding (biting) in each cell was recorded. After each experiment, the nylon and collagen strips were removed. The CPDA+ATP solution was removed and allowed to dry prior to starting the next experiment. The experiments on each chemical and each mosquito species were run three times before the bottom section with circulated water was cleaned prior to use again."}, "Anopheles stephensi [6]": {"test_system": "Anopheles stephensi", "assay": "K&D module behavioral bioassay (topical repellency, biting)", "assay_type": "in vivo", "method": "as §2, §3"}, "Aedes aegypti [7]": {"test_system": "Aedes aegypti", "assay": "Y-tube olfactometer behavioral bioassay (spatial repellency)", "assay_type": "in vivo", "method": "(§4) Aegypti and An. stephensi, and one species of sand fly, P. papatasi. Both the mosquitoes and the sand flies used in the study were from colonies maintained at the Walter Reed Army Institute of Research, Department of Entomology, Silver Spring, Md. This Y-tube bioassay system, equipped with CO2-enriched air (ca. 1 l/min) as an attractant, was made from three clear acrylic tubes (4″ diameter; 12″ length) with symmetrical 120° angles among the three tube arms; and a screen butterfly valve on the top part of the bottom releasing tube. These spatial repellency tests were carried out during 8:00 am-12:00 pm (photophase) time period for Ae. aegypti and 1:00-5:00 pm (shifted scotophase) time period for the species of night-flying mosquitoes and sand fly in a temperature and humidity controlled testing room (23-25° C. and 20-40% RH). Female mosquitoes or sand flies were stored at ˜25-26° C., 50-89% RH, 12:12 hr. (L/D), fed with 10% sucrose solution before testing. The candidate chemical (individual or mixture) dispenser and a blank control were placed in the upper left or right arm of the Y-tube before releasing 25-40, 6 to 10 day-old female mosquitoes (or 3 to 10 day-old sand flies) into the bottom tube via a small hole. After a 30-60 sec acclimation period, the butterfly screen valve (door) on the top of the bottom tube was opened. After 10 min., the valve was closed and the numbers of mosquitoes or sand flies in each arm (including the bottom tube) were counted. In order to minimize the position effect, the same experiment was repeated once with the treatment and blank control arms shifted using a new (clean) Y-tube olfactometer and a new batch of mosquitoes/sand flies. Data from these two replicates were pooled for χ2 goodness of fit test (df=1) between the treatment and blank control."}, "Anopheles stephensi [8]": {"test_system": "Anopheles stephensi", "assay": "Y-tube olfactometer behavioral bioassay (spatial repellency)", "assay_type": "in vivo", "method": "as §4"}, "[9]": {"details": "10 μg/cm^2, DEET values are the positive control run with the chemical"}, "[10]": {"details": "Aedes aegypti females, release rate per chemical (1-60 mg/day), 10 min"}, "[11]": {"details": "Anopheles stephensi females, release rate per chemical (β-Caryophyllene 10 mg/day), 10 min"}}}
{"smiles": "CC1=CC[C@@H]2[C@H]3[C@H]1[C@@]2(C)CCCC3(C)C", "note": "[(+)-longipinene, (+)-Longipinene]", "values": [{"measurement": "GC-EAD antennal activity", "setting": "[1]", "result": "active"}, {"measurement": "GC-EAD antennal activity", "setting": "[2]", "result": "active"}, {"measurement": "GC-EAD antennal activity", "setting": "[3]", "result": "antennally active"}]}
{"smiles": "CC1(C)C2=CC(=O)CC(C)(C)[C@]23CC[C@H]1C3", "note": "[isolongifolenone, reference compound]", "values": [{"measurement": "GC-EAD antennal activity", "setting": "[1]", "result": "inactive"}, {"measurement": "GC-EAD antennal activity", "setting": "[3]", "result": "does not appear to have elicited antennal activity"}]}
{"smiles": "C=C1C2CCC3(C)C(C2)C(C)CCC13C", "note": "(stereo not shown) [seychellene]", "values": [{"measurement": "GC-EAD antennal activity", "setting": "[4]", "result": "elicited EAD-activity"}]}
{"smiles": "C=C(C)[C@@H]1CCC(C)=C2CC[C@H](C)[C@@H]2C1", "note": "[α-Bulnesene, α-bulnesene]", "values": [{"measurement": "GC-EAD antennal activity", "setting": "[4]", "result": "elicited EAD-activity"}, {"measurement": "% of biting (±SE) (N = 3)", "setting": "Aedes aegypti [5]; [9]", "result": "73 ± 7", "unit": "b %"}, {"measurement": "% of biting (±SE) (N = 3)", "setting": "Aedes aegypti [5]; 100 μg/cm^2", "result": "0 ± 0", "unit": "a %"}, {"measurement": "% of biting (±SE) (N = 3)", "setting": "Aedes aegypti [5]; 500 μg/cm^2", "result": "0 ± 0", "unit": "a %"}, {"measurement": "% of biting (±SE) (N = 3)", "setting": "Aedes aegypti [5]; 1000 μg/cm^2", "result": "0 ± 0", "unit": "a %"}, {"measurement": "% of biting (±SE) (N = 3)", "setting": "Anopheles stephensi [6]; [9]", "result": "87 ± 7", "unit": "b %"}, {"measurement": "% of biting (±SE) (N = 3)", "setting": "Anopheles stephensi [6]; 100 μg/cm^2", "result": "0 ± 0", "unit": "a %"}, {"measurement": "% of biting (±SE) (N = 3)", "setting": "Anopheles stephensi [6]; 500 μg/cm^2", "result": "0 ± 0", "unit": "a %"}, {"measurement": "% of biting (±SE) (N = 3)", "setting": "Anopheles stephensi [6]; 1000 μg/cm^2", "result": "0 ± 0", "unit": "a %"}, {"measurement": "Number of mosquitoes in each arm: Blank", "setting": "Aedes aegypti [7]; [10]", "result": 35}, {"measurement": "Number of mosquitoes in each arm: Bottom", "setting": "Aedes aegypti [7]; [10]", "result": 24}, {"measurement": "Number of mosquitoes in each arm: Repellent", "setting": "Aedes aegypti [7]; Aedes aegypti females, release rate per chemical (1-60 mg/day), 10 min, two replicates pooled", "result": 11}, {"measurement": "SAI (Spatial Activity Index)", "setting": "Aedes aegypti [7]; Aedes aegypti, (Nc − Nt)/(Nc + Nt), −1 to 1, zero indicating no response", "result": 0.52}, {"measurement": "Number of mosquitoes in each arm: Repellent", "setting": "Anopheles stephensi [8]; Anopheles stephensi females, release rate per chemical (1-60 mg/day; β-Caryophyllene 10 mg/day), 10 min", "result": 13}, {"measurement": "Number of mosquitoes in each arm: Blank", "setting": "Anopheles stephensi [8]; [11]", "result": 33}, {"measurement": "Number of mosquitoes in each arm: Bottom", "setting": "Anopheles stephensi [8]; [11]", "result": 25}, {"measurement": "SAI (Spatial Activity Index)", "setting": "Anopheles stephensi [8]; Anopheles stephensi, β-Caryophyllene 10 mg/day", "result": 0.43}]}
{"smiles": "CC1=CCC2CC3C(C)CCC13C2(C)C", "note": "(stereo not drawn) [α-patchoulene, α-Patchoulene]", "values": [{"measurement": "GC-EAD antennal activity", "setting": "[4]", "result": "elicited EAD-activity"}]}
{"smiles": "CC1CCC2=C1CC1CCC2(C)C1(C)C", "note": "(stereo not drawn) [β-patchoulene, β-Patchoulene]", "values": [{"measurement": "GC-EAD antennal activity", "setting": "[4]", "result": "elicited EAD-activity"}]}
